Columns and labels:
[1] = tested on: Contingent Negative Variation (CNV), electric potential of the brain; assay: Contingent Negative Variation (CNV) measurement while inhaling the aroma sample; type: in vivo, human; details: for Stimulative or sedative effect by CNV (FIG. 1): 1% ethanol solution of each sample, 5 healthy adult women, over 100% of CNV = stimulative, less than 100% = sedative
Description: First of all, the test method of this invention is explained. The change of negative electric potential of brain called Contingent Negative Variation (CNV) was measured. CNV is the gradual fluctuation of electric potential of the brain. It is related to the fluctuation of the mental process and the conscious level such as an attention, expectation and anticipation.
An experiment to study perfume effects was as follows. After two seconds from a warning sound stimulation, a starting signal light of an exercise is turned on. Then, as soon as light is observed, the pushing button behavior is demanded as exercise reaction. In this series of steps, a sample of aroma is located at 10cm before nose tip. The aroma can be always recognized along with breathing. A recording electrode for the CNV measurement is fixed to the frontal region of the head. An electric potential between the frontal region and ear lobe is measured.
The fluctuation area of this section is expressed as comparative percentage (%) to 100% of blank (odorless stimulation). Also, aroma was presented in accordance with Latin square method.

[2] = tested on: Contingent Negative Variation (CNV), electric potential of the brain; details: administered drug; reported in the literature; cited from earlier work

SMILES: COc1cc(C)cc(OC)c1 [DMB, 1,3-dimethoxy-5-methylbenzene]
- Stimulative or sedative effect by CNV (FIG. 1) [1]: sedative effect

SMILES: CC=Cc1ccc(OC)cc1 [anethole]
- Measured value of CNV ([1]; ethanol solution including 1 wt % of each sample, % relative to 100% of blank (odorless stimulation)): 108%

SMILES: COc1ccc(C=O)cc1 [anisaldehyde, p-methoxy benzaldehyde]
- Stimulative or sedative effect by CNV (FIG. 1) [1]: much stronger stimulative effect in comparison with conventional lemon oil
- Effective amount of anisaldehyde in the perfume ingredients ([1]; concluded from Table 2 (anisaldehyde in anethole)): ≥ 1 wt %

SMILES: Cn1c(=O)c2c(ncn2C)n(C)c1=O [caffeine]
- Change of amplitude of CNV after administration [2]: increase of amplitude of CNV

SMILES: O=C1CN=C(c2ccccc2)c2cc([N+](=O)[O-])ccc2N1 [nitrazepam]
- Change of amplitude of CNV after administration [2]: decrease of amplitude of CNV
